Results published in publication PMC5951806, “Rapid labelling and covalent inhibition of intracellular native proteins using ligand-directed N-acyl-N-alkyl sulfonamide” (Nature Communications, 2018).

Key:
Assay in all cases: TMT LC-MSMS of 11-labelled proteins
Assay type in all cases: cell-based
[1] = molecular target: T1, citrate synthase, mitochondrial (CS) (Homo sapiens, UniProt O75390)
T1 sequence (O75390 28-466): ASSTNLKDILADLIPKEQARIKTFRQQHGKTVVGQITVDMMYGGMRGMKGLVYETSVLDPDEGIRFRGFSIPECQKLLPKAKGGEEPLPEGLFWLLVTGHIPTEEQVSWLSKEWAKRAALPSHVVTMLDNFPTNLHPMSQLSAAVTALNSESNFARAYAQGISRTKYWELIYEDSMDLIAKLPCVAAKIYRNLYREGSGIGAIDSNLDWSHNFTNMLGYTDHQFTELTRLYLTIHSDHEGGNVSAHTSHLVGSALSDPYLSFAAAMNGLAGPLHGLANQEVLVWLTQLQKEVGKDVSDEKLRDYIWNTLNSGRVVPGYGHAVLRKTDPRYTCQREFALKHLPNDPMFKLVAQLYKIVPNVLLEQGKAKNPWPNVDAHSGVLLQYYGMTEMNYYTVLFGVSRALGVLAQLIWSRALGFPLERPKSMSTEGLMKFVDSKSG

[2] = molecular target: T2, Elongation factor 1-alpha 1 (EEF1A1) (Homo sapiens, UniProt P68104)
T2 sequence (P68104 1-462): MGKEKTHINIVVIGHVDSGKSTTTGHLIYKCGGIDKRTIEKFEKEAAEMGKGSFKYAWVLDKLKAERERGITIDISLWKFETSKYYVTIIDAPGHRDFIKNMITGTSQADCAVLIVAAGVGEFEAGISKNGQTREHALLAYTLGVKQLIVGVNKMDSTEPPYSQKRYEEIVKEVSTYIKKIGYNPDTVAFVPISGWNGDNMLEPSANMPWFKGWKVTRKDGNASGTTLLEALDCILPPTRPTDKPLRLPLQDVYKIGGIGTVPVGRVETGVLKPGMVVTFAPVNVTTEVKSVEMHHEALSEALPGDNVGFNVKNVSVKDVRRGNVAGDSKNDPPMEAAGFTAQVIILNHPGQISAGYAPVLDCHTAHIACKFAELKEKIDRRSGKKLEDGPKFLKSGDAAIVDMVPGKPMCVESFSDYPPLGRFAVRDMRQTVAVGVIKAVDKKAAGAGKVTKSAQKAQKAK

[3] = molecular target: Prohibitin-2 (PHB2) (Homo sapiens, UniProt Q99623); conditions: SKBR3 cells; for Abundance Ratio: (11) / (DMSO): 11 0.5 µM 3 h vs DMSO; for Abundance Ratio: (11) / (11 with PU-H71): 11 0.5 µM 3 h vs with PU-H71 10 µM
Chain of Prohibitin-2 (PHB2) (Q99623 whole entry): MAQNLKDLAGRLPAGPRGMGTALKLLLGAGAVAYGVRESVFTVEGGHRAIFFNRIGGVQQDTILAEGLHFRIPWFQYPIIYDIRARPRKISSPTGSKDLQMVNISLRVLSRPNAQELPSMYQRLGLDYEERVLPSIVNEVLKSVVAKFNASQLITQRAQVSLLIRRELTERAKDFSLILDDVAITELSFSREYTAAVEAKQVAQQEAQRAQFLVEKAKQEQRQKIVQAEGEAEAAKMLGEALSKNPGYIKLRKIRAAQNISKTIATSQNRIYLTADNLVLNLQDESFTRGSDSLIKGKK
Chain of Prohibitin-2 (PHB2) (P35232 whole entry partner): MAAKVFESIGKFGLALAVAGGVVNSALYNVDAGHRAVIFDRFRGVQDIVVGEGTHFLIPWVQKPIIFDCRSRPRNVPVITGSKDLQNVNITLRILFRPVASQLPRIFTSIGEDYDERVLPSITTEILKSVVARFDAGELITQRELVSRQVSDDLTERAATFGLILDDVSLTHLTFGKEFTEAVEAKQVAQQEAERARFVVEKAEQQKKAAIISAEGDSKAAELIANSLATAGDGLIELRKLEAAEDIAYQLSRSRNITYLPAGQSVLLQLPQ

[4] = sheet Merged, SKBR3 cells, 11 0.5 µM 3 h vs DMSO
[5] = sheet Merged, SKBR3 cells, 11 0.5 µM 3 h vs with PU-H71 10 µM

Structure (SMILES): CC(=O)Oc1ccc2c(c1)Oc1cc(OC(C)=O)ccc1C21OC(=O)c2cc(C(=O)NCCOCCOCCNC(=O)CCCC(=O)N(CC#N)S(=O)(=O)c3ccc(C(=O)NCCCn4c(Sc5cc6c(cc5I)OCO6)nc5c(N)ncnc54)cc3)ccc21 [compound 11]
- Abundance Ratio: (11) / (11 with PU-H71) ([1]; sheet Exp2, CS): 0.812
- Abundance Ratio: (11) / (DMSO) ([1]; sheet Exp2, CS): 1.581
- Abundances (Grouped): 11 ([1]; sheet Exp2, CS): 26.4
- Abundances (Grouped): 11 with PU-H71 ([1]; sheet Exp2, CS, with PU-H71): 32.5
- Abundance Ratio: (11) / (DMSO) [1, 4]: 1.555
- Abundance Ratio: (11) / (11 with PU-H71) [1, 5]: 0.796
- Abundance Ratio: (11) / (11 with PU-H71) ([2]; Exp3, EEF1A1): 0.806
- Abundance Ratio: (11) / (DMSO) ([2]; Exp3, EEF1A1): 4.916
- Abundances (Grouped): 11 ([2]; Exp3, EEF1A1): 720.2
- Abundances (Grouped): 11 with PU-H71 ([2]; Exp3, EEF1A1): 894
- Abundance Ratio: (11) / (DMSO) ([2]; sheet Exp1, SKBR3 cells, 11 0.5 µM 3 h vs DMSO): 4.039
- Abundance Ratio: (11) / (11 with PU-H71) ([2]; sheet Exp1, SKBR3 cells, 11 0.5 µM 3 h vs with PU-H71 10 µM): 0.803
- Abundance Ratio: (11) / (11 with PU-H71) ([2]; sheet Exp2, EEF1A1): 0.83
- Abundance Ratio: (11) / (DMSO) ([2]; sheet Exp2, EEF1A1): 3.879
- Abundances (Grouped): 11 ([2]; sheet Exp2, EEF1A1): 725.4
- Abundances (Grouped): 11 with PU-H71 ([2]; sheet Exp2, EEF1A1): 874.4
- Abundance Ratio: (11) / (DMSO) [2, 4]: 3.879
- Abundance Ratio: (11) / (11 with PU-H71) [2, 5]: 0.811
- Abundance Ratio: (11) / (DMSO) ([3]; sheet Exp1): 1.815
- Abundance Ratio: (11) / (11 with PU-H71) ([3]; sheet Exp1): 0.795
- Abundance Ratio: (11) / (DMSO) ([3]; sheet Merged): 1.815
- Abundance Ratio: (11) / (11 with PU-H71) ([3]; sheet Merged): 0.795
